Assay results: paper PMC12210912, “Pharmacologic properties and inhibitory activity of 6-azasteroids against Mycobacterium leprae in vivo and in vitro” (Microbiology Spectrum, 2025)
Like-named read-outs stand apart in the source and are kept apart here.

Tests used:
[1] = target: T1, LXRα (Homo sapiens, UniProt Q13133); assay: LXRα radioligand binding inhibition; settings: [3H]T0901317 binding, recombinant protein; for % inhibition observed, LXRα: 10 µM; for inhibition at 10 µM: read-out: % inhibition observed, LXRα
T1 construct: Eurofins (assay provider); host or cells: E. coli
T1 sequence (Q13133 1-447): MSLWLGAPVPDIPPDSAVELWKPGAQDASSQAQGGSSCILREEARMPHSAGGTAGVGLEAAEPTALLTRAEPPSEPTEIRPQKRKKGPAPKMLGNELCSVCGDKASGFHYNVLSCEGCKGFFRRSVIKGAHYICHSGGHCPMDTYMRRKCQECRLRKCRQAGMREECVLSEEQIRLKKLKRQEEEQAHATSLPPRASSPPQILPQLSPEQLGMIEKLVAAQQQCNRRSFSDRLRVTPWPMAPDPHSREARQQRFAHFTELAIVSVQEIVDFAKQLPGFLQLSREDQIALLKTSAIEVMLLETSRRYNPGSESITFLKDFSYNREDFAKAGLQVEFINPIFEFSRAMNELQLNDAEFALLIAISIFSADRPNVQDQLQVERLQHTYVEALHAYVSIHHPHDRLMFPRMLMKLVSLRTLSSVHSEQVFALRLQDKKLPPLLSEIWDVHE
Method: (§1) Four nuclear receptors: glucocorticoid, androgen, LXRα, and LXRβ were assayed. Inhibition of agonist binding to each of the receptors was carried out following a standard protocol by Eurofins, Inc., USA. Compounds were tested at 10 µM. Compound binding was measured by scintillation counting and was calculated as a % inhibition of the binding of a radioactively labeled ligand specific for each target. Percent inhibition of control specific binding was expressed as
(§2) 100−[(measured specific binding)/(control specific binding)∗100]
(§3) where measured specific binding is the amount of radioactive ligand binding obtained in the presence of test compounds.
(§4) (iii) LXRα (human) recombinant protein expressed in E. coli; agonist radioligand 20 nM [^3H] […] (iv) LXRβ (human) recombinant protein expressed in E. coli; agonist radioligand 20 nM [^3H]

[2] = system: THP-1 cells; settings: cited from earlier work
[3] = target: T2, LXRβ (Homo sapiens, UniProt P55055); assay: LXRβ radioligand binding inhibition; settings: [3H]T0901317 binding, recombinant protein; for % inhibition observed, LXRβ: 10 µM; for inhibition at 10 µM: read-out: % inhibition observed, LXRβ
T2 construct: Eurofins (assay provider); host or cells: E. coli
T2 sequence (P55055 1-460): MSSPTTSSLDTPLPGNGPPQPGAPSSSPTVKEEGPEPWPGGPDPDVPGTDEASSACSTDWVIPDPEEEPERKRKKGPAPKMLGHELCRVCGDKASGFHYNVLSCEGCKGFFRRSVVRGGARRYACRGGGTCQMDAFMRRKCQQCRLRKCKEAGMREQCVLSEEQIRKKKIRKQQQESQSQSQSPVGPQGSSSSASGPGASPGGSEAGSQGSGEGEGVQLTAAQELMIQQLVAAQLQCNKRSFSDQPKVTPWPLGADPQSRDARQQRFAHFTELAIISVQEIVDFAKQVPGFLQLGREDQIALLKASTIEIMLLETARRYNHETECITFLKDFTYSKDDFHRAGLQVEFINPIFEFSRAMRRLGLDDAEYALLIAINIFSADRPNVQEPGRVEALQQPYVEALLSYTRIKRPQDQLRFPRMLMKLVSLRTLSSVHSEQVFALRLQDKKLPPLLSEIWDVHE
Method: as §1, §2, §3, §4

[4] = stability in human liver microsomes; type: in vitro ADME; settings: both sexes
Method: Experiments were performed by Pharmaron, Inc., China. […] Negative control samples were prepared by replacing the NADPH solution with ultrapure H2O. The negative controls were used to exclude the confounding variable of test compound instability. Experiments involving NADPH were carried out in duplicate. Negative controls were prepared in singlet. Aliquots (90 µL) were taken at 0, 15, 30, 45, and 60 min of incubation. The microsomal reaction in each aliquot was stopped by the addition of four volumes of cold acetonitrile containing internal standards (100 nM alprazolam, 200 nM imipramine, 200 nM labetalol, and 2 µM ketoprofen). The samples were centrifuged at 3,220 × g for 40 min, and an aliquot (90 µL) of the supernatant was mixed with 90 µL of ultrapure H2O. The resulting mixture was used for liquid chromatography–tandem mass spectrometry (LC-MS/MS) analysis (Shimadzu and SCIEX Triple Quad 4500). Peak areas were determined from extracted ion chromatograms. A slope, k, was determined by linear regression analysis of a plot of the natural logarithm of the remaining percentage of the parent drug versus incubation time. The in vitro t1/2 (min) was determined from the slope: in vitro t1/2=−(0.693/k) In vitro t1/2 (min, mean of duplicate determinations) was converted to in vitro intrinsic clearance (in vitro Clint, μL/(min·µg protein)) by means of the following equation : in vitro Clint=(0.693/t1/2)×(volume of incubation (μL)/amount of protein (μg))

[5] = human liver microsomes, pH 7.4, 1 μM, HLM 0.5 mg/mL, 37°C, 1 h, mean of duplicates, read-out: HLM stability t1/2

| Compound | % inhibition observed, LXRα [1] | inhibition at 10 µM [1] | IC50 ([2]; read-out: Mammalian cell IC50 Cytotoxicity THP1, THP-1 cells, 72 h, Alamar Blue) | % inhibition observed, LXRβ [3] | inhibition at 10 µM [3] | half-life at 1 µM ([4]; microsomes, pH 7.4, HLM stability t1/2) | IC50 [2] | half-life at 1 µM [4, 5] | half-life at 1 µM ([4]; human liver microsomes, pH 7.4, as stated in text, read-out: half-life in human liver microsomes) |
| --- | --- | --- | --- | --- | --- | --- | --- | --- | --- |
| CC(C)(C)c1ccc(C(C)(C)C)c(NC(=O)C2CCC3C4CNC5=CC(=O)CC[C@]5(C)C4CC[C@]23C)c1 (stereo partly shown) [Compound 1] | significantly inhibit binding | 53% | 18 µM | significantly inhibit binding | 72% | 45 min | – | – | – |
| CCCN1CC2C3CCC(C(=O)Nc4cc(C(C)(C)C)ccc4C(C)(C)C)[C@@]3(C)CCC2[C@@]2(C)CCC(=O)C=C12 (stereo partly shown) [Compound 2] | significantly inhibit binding | 64% | – | significantly inhibit binding | 69% | – | 24 µM | 18 min | – |
| C[C@]12CCC3C(CNC4=CC(=O)CC[C@@]43C)C1CCC2C(=O)NC(c1ccc(F)cc1)c1ccc(F)cc1 (stereo partly shown) [Compound 5] | low binding | 11% | – | low binding | 26% | – | 24 µM | 443 min | > 360 min |
